Data: article PMC7139549, “TLD1433 Photosensitizer Inhibits Conjunctival Melanoma Cells in Zebrafish Ectopic and Orthotopic Tumour Models” (Cancers, 2020)

Key:
[1] = test system: CRMM1 engrafted cells in zebrafish orthotopic model; assay: In situ TUNEL assay, CRMM1 orthotopic zebrafish model; assay type: in vivo, Zebrafish (Danio rerio); conditions: RO 2.3 mM
Method: In situ TUNEL assay on fixed embryos was used to detect TLD1433 induced apoptosis in zebrafish CRMM1 and CRMM2 orthotopic tumour models at 4 dpi after light activation of 2.3 mM TLD1433, administrated by retro orbital injection. The DNA strand breaks in apoptotic tumour cells were stained with fluorescein and visualized as a green signal.
Figure 10 TUNEL assay of in CRMM1 and CRMM2 orthotopic model after RO of TLD1433. Red fluorescent CRMM1 (A) and CRMM2 (B) cells were injected at 2dpf behind the ZF eye and divided into four groups for drug treatment. RO administration of vehicle control and TLD1433 was performed as described in Figure 9C,E. After dark or light exposure (21 mW/cm^2, 114 J.cm^−2, 520 nm) embryos were fixed and TUNEL staining was performed. Representative images of embryos are shown in this figure. (A,B) In TLD1433 light groups nuclear DNA fragmentation by nucleases is detected by co-localization of green (DNA fragments) and red signal of engrafted CM cells, depicted as yellow signal and marked by white arrows. In control dark, control light, TLD1433 dark, there are no positive green apoptotic tumour cells observed. […] Experiment was performed 3 times with a group size of 10 embryos.
The zebrafish larvae were fixed overnight with 4% PFA at 4 °C. Embryos were washed in PBST for 5 min and dehydrated by a graded methanol series until reaching 100% methanol. […]

CRMM1 cells = assay: Annexin-V-FITC / Propidium Iodide FACS, CRMM1; assay type: cell-based, Human
Source text: Depending on the nature and intracellular localization of a PS, the light dose, and the cell type, PDT is known to provoke either necrosis, apoptosis, or autophagy. In order to investigate the death mechanism induced by green light-activated TLD1433 in CRMM1 and CRMM2 cells, the cells were stained with Annexin V and propidium iodide, and further analysed by fluorescence-activated cell sorting (FACS).
Figure 3 Green light irradiation of TLD1433 induces apoptosis and necrosis in CRMM1 and CRMM2 cells. (A) CRMM1 and (C) CRMM2 were stained with Annexin-V-FITC and Propidium Iodide. The percentages of live, early apoptotic, later apoptotic and necrotic cells in CRMM1 (B) and CRMM2 (D) were counted by FACS. Results are presented as means ± SD from three independent experiments. […]

With `Cc1ccnc(-c2cc(C)ccn2)c1.Cc1ccnc(-c2cc(C)ccn2)c1.[Cl-].[Cl-].[Ru+2].c1csc(-c2ccc(-c3ccc(-c4nc5c6cccnc6c6ncccc6c5[nH]4)s3)s2)c1` [TLD1433] the “TUNEL apoptosis of engrafted cells (in words)” value ([1]; dark, 4 dpi) was “no positive green signal detected”, the “TUNEL apoptosis of engrafted cells (in words)” value ([1]; light 114 J.cm^−2, 4 dpi) was “induced CRMM1 and CRMM2 cell apoptosis” and the “cell fate by FACS (in words)” value (CRMM1 cells; CRMM1, dark TLD1433 group) was “most cells were found alive”. For the same compound, the “cell fate by FACS (in words)” value (CRMM1 cells; CRMM1, light-activated TLD1433 group) was “about half of the cells were found dead”.
